Results as given in patent US8158810B2 (Gilead Sciences, Inc., priority 2006, dated 2012).

Tests used:
[1] = target: T1, hMAO-A (Homo sapiens, UniProt P21397); assay: MAO-A inhibition assay; assay type: biochemical; details: No = no inhibition; for hMAO-A inhibition up to 10 μM: printed in the IC50 hMAO-A column
T1 construct: purchased Sigma M7316
T1 sequence (P21397 1-527): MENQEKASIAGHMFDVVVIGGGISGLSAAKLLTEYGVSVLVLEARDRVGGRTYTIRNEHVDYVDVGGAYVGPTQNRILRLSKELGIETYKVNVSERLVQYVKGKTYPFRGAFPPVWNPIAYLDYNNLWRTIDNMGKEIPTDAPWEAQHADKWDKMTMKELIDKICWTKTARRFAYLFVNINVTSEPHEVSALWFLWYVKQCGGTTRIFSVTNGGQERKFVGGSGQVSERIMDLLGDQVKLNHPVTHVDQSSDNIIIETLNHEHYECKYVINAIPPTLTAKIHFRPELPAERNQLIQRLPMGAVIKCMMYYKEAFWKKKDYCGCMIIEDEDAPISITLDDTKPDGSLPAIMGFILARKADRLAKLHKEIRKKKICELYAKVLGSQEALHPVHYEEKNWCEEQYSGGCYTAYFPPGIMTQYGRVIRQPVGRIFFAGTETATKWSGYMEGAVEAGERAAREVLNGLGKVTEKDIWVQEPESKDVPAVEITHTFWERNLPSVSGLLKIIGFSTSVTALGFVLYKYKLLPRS
Method: (§1) MAO-A (Sigma M7316) and MAO-B (Sigma M7441) inhibition assays were conducted in 96-well micro-plates according to the method described by Zhou et al. [Analytical Biochemistry 253, 169-174, 1997]. […] Reactions were initiated by the addition of a pre-mixed solution of tyramine, horseradish peroxidase and Amplex Red, and were allowed to proceed at 37° C. for 30 min. Enzyme activities were determined by measuring absorbance at 570 nm (SpectralMax Plate reader), absorbance of oxidized Amplex Red generated by this horseradish peroxidase-coupled reaction. Nonspecifically formed products were determined in the presence of 2 and 10 µM clorgyline and deprenyl for MAO-A and MAO-B, respectively. IC50 values were determined by fitting concentration-inhibition data to sigmoidal dose-response curves with two-floating parameters: IC50 and Hill coefficient.

[2] = target: T2, hMAO-B (Homo sapiens, UniProt P27338); assay: MAO-B inhibition assay; assay type: biochemical; details: No = no inhibition; for hMAO-B inhibition at 10 μM: printed in the IC50 hMAO-B column
T2 construct: purchased Sigma M7441
T2 sequence (P27338 1-520): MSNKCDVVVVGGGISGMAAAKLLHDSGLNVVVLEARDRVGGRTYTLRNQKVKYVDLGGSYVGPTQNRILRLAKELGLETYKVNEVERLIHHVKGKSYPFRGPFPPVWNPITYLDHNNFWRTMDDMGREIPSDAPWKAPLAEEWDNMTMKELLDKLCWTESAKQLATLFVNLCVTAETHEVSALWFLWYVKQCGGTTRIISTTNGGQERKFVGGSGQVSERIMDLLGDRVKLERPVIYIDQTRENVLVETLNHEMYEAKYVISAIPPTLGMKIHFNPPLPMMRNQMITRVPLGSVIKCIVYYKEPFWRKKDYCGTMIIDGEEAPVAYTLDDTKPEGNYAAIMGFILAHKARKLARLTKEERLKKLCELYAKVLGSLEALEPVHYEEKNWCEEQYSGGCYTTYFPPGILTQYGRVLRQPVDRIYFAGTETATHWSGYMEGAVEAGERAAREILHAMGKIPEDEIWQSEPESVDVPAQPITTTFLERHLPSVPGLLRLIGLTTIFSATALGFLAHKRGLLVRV
Method: as §1

Compound	hMAO-A inhibition up to 10 μM [1]	hMAO-B inhibition up to 10 μM [2]	other results
O=c1c(-c2ccc(O)cc2)coc2cc(OCc3noc(-c4ccc(F)cc4)n3)ccc12 [PT-11, 7-{[5-(4-fluorophenyl)(1,2,4-oxadiazol-3-yl)]methoxy}-3-(4-hydroxyphenyl)chromen-4-one]	No		hMAO-B inhibition at 10 μM ([2]; listed as PT-104, 10 µM): No
O=c1c(-c2ccc(O)cc2)coc2cc(OCc3coc(-c4cccc(C(F)(F)F)c4)n3)ccc12 [PT-12, 3-(4-hydroxyphenyl)-7-({2-[3-(trifluoromethyl)phenyl](1,3-oxazol-4-yl)}methoxy)chromen-4-one]	No		hMAO-B inhibition at 10 μM [2]: No
O=c1c(-c2ccc(O)cc2)coc2cc(OCc3coc(-c4cc(F)cc(C(F)(F)F)c4)n3)ccc12 [PT-13, 7-({2-[5-fluoro-3-(trifluoromethyl)phenyl](1,3-oxazol-4-yl)}methoxy)-3-(4-hydroxyphenyl)chromen-4-one]	No		hMAO-B inhibition at 10 μM [2]: No
O=c1c(-c2ccc(O)cc2)coc2cc(OCc3coc(-c4cc(F)cc(F)c4)n3)ccc12 [PT-14, 7-{[2-(3,5-difluorophenyl)(1,3-oxazol-4-yl)]methoxy}-3-(4-hydroxyphenyl)chromen-4-one]	No		hMAO-B inhibition at 10 μM [2]: No
O=c1c(-c2ccc(O)cc2)coc2cc(OCc3coc(-c4ccc(F)cc4)n3)ccc12 [PT-16, 7-{[2-(4-fluorophenyl)(1,3-oxazol-4-yl)]methoxy}-3-(4-hydroxyphenyl)chromen-4-one]	No		hMAO-B inhibition at 10 μM [2]: No
O=c1c(-c2ccc(O)cc2)coc2cc(OCc3noc(-c4ccccc4)n3)ccc12 [PT-24, 3-(4-hydroxyphenyl)-7-[(5-phenyl(1,2,4-oxadiazol-3-yl))methoxy]chromen-4-one]			hMAO-A inhibition up to 40 μM [1]: No; hMAO-B inhibition up to 40 μM ([2]; up to 40 μM): No
N#Cc1cccc(COc2ccc3c(=O)c(-c4ccc(O)cc4)coc3c2)c1 [PT-25, 3-{[3-(4-hydroxyphenyl)-4-oxochromen-7-yloxy]methyl}benzenecarbonitrile]	No	No	
COc1ccc(COc2ccc3c(=O)c(-c4ccc(O)cc4)coc3c2)cc1C(F)(F)F [PT-27, 3-(4-hydroxyphenyl)-7-{[4-methoxy-3-(trifluoromethyl)phenyl]methoxy}chromen-4-one]	No	No	
O=c1c(-c2ccc(O)cc2)coc2cc(OCc3noc(-c4cc(F)cc(C(F)(F)F)c4)n3)ccc12 [PT-29, 7-({5-[3-fluoro-5-(trifluoromethyl)phenyl](1,2,4-oxadiazol-3-yl)}methoxy)-3-(4-hydroxyphenyl)chromen-4-one]			hMAO-A inhibition up to 30 μM [1]: No; hMAO-B inhibition up to 30 μM [2]: No
O=c1c(-c2ccc(O)cc2)coc2cc(OCc3noc(-c4ccc(F)c(C(F)(F)F)c4)n3)ccc12 [PT-30, 7-({5-[4-fluoro-3-(trifluoromethyl)phenyl](1,2,4-oxadiazol-3-yl)}methoxy)-3-(4-hydroxyphenyl)chromen-4-one]	No	No	
O=c1c(-c2ccc(O)cc2)coc2cc(OCc3noc(-c4cc(C(F)(F)F)ccc4C(F)(F)F)n3)ccc12 [PT-31, 7-({5-[2,5-bis(trifluoromethyl)phenyl](1,2,4-oxadiazol-3-yl)}methoxy)-3-(4-hydroxyphenyl)chromen-4-one]	No	No	
C=CCOC(=O)c1cccc(-c2nc(COc3ccc4c(=O)c(-c5ccc(O)cc5)coc4c3)no2)c1 [PT-32, prop-2-enyl 3-(3-{[3-(4-hydroxyphenyl)-4-oxochromen-7-yloxy]methyl}-1,2,4-oxadiazol-5-yl)benzoate]	No	No	
O=C(O)c1ccc(COc2ccc3c(=O)c(-c4ccc(O)cc4)coc3c2)cc1 [PT-36, 4-{[3-(4-hydroxyphenyl)-4-oxochromen-7-yloxy]methyl}benzoic acid]			hMAO-A inhibition up to 40 μM [1]: No; hMAO-B inhibition up to 30 μM [2]: No
NC(=O)c1ccc(COc2ccc3c(=O)c(-c4ccc(O)cc4)coc3c2)cc1 [PT-37, 4-{[3-(4-hydroxyphenyl)-4-oxochromen-7-yloxy]methyl}benzamide]			hMAO-A inhibition up to 30 μM [1]: No; hMAO-B inhibition up to 30 μM [2]: No
O=c1c(-c2ccc(O)cc2)coc2cc(OCc3noc(-c4ccc(C(F)(F)F)cc4)n3)ccc12 [PT-38, 3-(4-hydroxyphenyl)-7-({5-[4-(trifluoromethyl)phenyl](1,2,4-oxadiazol-3-yl)}methoxy)chromen-4-one]			hMAO-A inhibition up to 30 μM [1]: No; hMAO-B inhibition up to 30 μM [2]: No
O=c1c(-c2ccc(O)cc2)coc2cc(OCc3noc(-c4cc(C(F)(F)F)cc(C(F)(F)F)c4)n3)ccc12 [PT-39, 7-({5-[3,5-bis(trifluoromethyl)phenyl](1,2,4-oxadiazol-3-yl)}methoxy)-3-(4-hydroxyphenyl)chromen-4-one]	No	No	
N#Cc1cccc(-c2nc(COc3ccc4c(=O)c(-c5ccc(O)cc5)coc4c3)no2)c1 [PT-40, 3-(3-{[3-(4-hydroxyphenyl)-4-oxochromen-7-yloxy]methyl}-1,2,4-oxadiazol-5-yl)benzenecarbonitrile]	No	No	
O=C(O)c1cccc(-c2nc(COc3ccc4c(=O)c(-c5ccc(O)cc5)coc4c3)no2)c1 [PT-41, 3-(3-{[3-(4-hydroxyphenyl)-4-oxochromen-7-yloxy]methyl}-1,2,4-oxadiazol-5-yl)benzoic acid]	No	No	
O=c1c(-c2ccc(O)cc2)coc2cc(OCc3noc(-c4cccc(F)c4)n3)ccc12 [PT-42, 7-{[5-(3-fluorophenyl)(1,2,4-oxadiazol-3-yl)]methoxy}-3-(4-hydroxyphenyl)chromen-4-one]	No	No	
O=c1c(-c2ccc(O)cc2)coc2cc(OCc3nc(-c4ccccc4)no3)ccc12 [PT-43, 3-(4-hydroxyphenyl)-7-[(3-phenyl(1,2,4-oxadiazol-5-yl))methoxy]chromen-4-one]			hMAO-A inhibition up to 30 μM [1]: No; hMAO-B inhibition up to 30 μM [2]: No
O=c1c(-c2ccc(O)cc2)coc2cc(OCc3nc(-c4ccc(Cl)cc4)no3)ccc12 [PT-44, 3-(4-hydroxyphenyl)-7-({3-[4-chlorophenyl](1,2,4-oxadiazol-5-yl)}methoxy)chromen-4-one]			hMAO-A inhibition up to 30 μM [1]: No; hMAO-B inhibition up to 30 μM [2]: No
O=c1c(-c2ccc(O)cc2)coc2cc(OCc3cc(-c4cc(C(F)(F)F)cc(C(F)(F)F)c4)on3)ccc12 [PT-62, 7-({5-[3,5-bis(trifluoromethyl)phenyl]isoxazol-3-yl}methoxy)-3-(4-hydroxyphenyl)chromen-4-one]	No		hMAO-B inhibition at 10 μM [2]: no
C[C@H](NC(=O)COc1ccc2c(=O)c(-c3ccc(O)cc3)coc2c1)c1ccc(F)cc1 [PT-103, N-[(1S)-1-(4-fluorophenyl)ethyl]-2-[3-(4-hydroxyphenyl)-4-oxochromen-7-yloxy]acetamide]	36%		
O=c1c(-c2ccc(O)cc2)coc2cc(OC[C@H](O)Cc3ccccc3)ccc12 [PT-109, 7-((2R)-2-hydroxy-3-phenylpropoxy)-3-(4-hydroxyphenyl)chromen-4-one]	26%		
CS(=O)(=O)Nc1ccc(-c2c(O)oc3cc(OCc4cccc(C(=O)O)c4)ccc3c2=O)cc1 [PT-111, 3-[(2-hydroxy-3-{4-[(methylsulfonyl)amino]phenyl}-4-oxochromen-7-yloxy)methyl]-benzoic acid]	No		
